One experiment relates to aldosterone. Put plainly: Aldosterone antagonist effect in adrenalectomized DOCA-treated rats, urinary Na+/K+ (method of C. M. Kagawa). In kind it is in vivo. To be noted: for Activity related to Spironolactone: Spironolactone = 1.0. Here is the method:
M. Kagawa [C. M. Kagawa et al., J. Pharmacol. Exp. Ther. 126, 123 (1959)].
18 hours after the removal of their suprarenal glands, desoxycorticosterone acetate (DOCA) was administered to groups of rats which were simultaneously treated with the test and, respectively, the reference compounds. The reference compound, i.e. Spironolactone (17α-carboxyethyl-17β-hydroxy-7α-acetylthioandrost-4-en-3-one-lactone), was administered orally in a dose of 480 μg./animal. The Na^+ and K^+ concentrations in the urine of the treated animals were determined by flame photometry. Evaluation was made on the basis of the Na^+ /K^+ proportions.

Experiment [1] concerns vesicula seminalis gland (weight increase induced by testosterone propionate). As to the kind of experiment: Antiandrogenic activity in castrated testosterone propionate-treated male mice, vesicula seminalis weight (modified method of Dorfman). In kind it is in vivo. The protocol: The antiandrogenic activity of the compounds according to the invention--anundesirable side-effect exerted by spironolactone during protracted treating--was tested by the modified method of Dorfman (R. Dorfman: Steroids 2, 185 (1963).
Castrated male mice weighing 25 to 30 g. each were treated with testosterone propionate (T.P.) in every second day. The total dose amounted to 300 μg./2 weeks/animal. The test compounds were administered parallel with the T. […] The antiandrogenic activity of a given test compound was expressed in %. If the increase in weight of the vesicula seminalis gland induced by T.P. is 100%, subtracting the weight-increase induced by the combination of T.P. and the test compound from 100, the percentage inhibition is obtained.
Each group of test amimals consisted of from 8 to 10 mice.

Setting [2] is: Rattus norvegicus, po, 480 μg/animal p.o., read-out: DOCA blocking activity.
Setting [3] is: Rattus norvegicus, po, 960 μg/animal p.o., read-out: DOCA blocking activity.
Setting [4] is: 5.0 mg/2 weeks/animal s.c., with testosterone propionate.
The mark [5] stands for this setting: 10.0 mg/2 weeks/animal s.c., with testosterone propionate.

On to `CN1C[C@@]2(CC[C@H]3[C@@H]4CC=C5C[C@@H](F)CC[C@]5(C)[C@H]4CC[C@@]32C)OC1=O` [3β-Fluoroandrost-5-ene-17S-spiro-5'-(2'-oxo-3'-methyloxazolidine)], for which the “log (Na × 10 / K), X ± S” value in the experiment on aldosterone (480 μg/animal p.o., with DOCA) is 0.98; in the experiment on aldosterone (960 μg/animal p.o., with DOCA), 1.13. Further, in the experiment on aldosterone (480 μg/animal p.o.), the “Activity related to Spironolactone” value was 0.80. Also, the inhibition in vivo at 0.48 mg in the experiment on aldosterone (setting [2]) came to 26%. In addition, in the experiment with aldosterone (setting [3]), the inhibition in vivo at 0.96 mg was 45%.
On the same counts, the results for `CN1C[C@@]2(CC[C@H]3[C@@H]4C=C[C@]56C[C@@H](O)CC[C@]5(C6)[C@H]4CC[C@@]32C)OC1=O` [3β-Hydroxy-5β,19-cycloandrost-6-ene-17S-spiro-5'-(2'-oxo-3'-methyloxazolidine)] are 1.18, 1.23, 0.98, 51% and 58%.
With `C/C=C\N1C[C@@]2(CC[C@H]3[C@@H]4CCC5=C(CC=C(OC)C5)[C@H]4CC[C@@]32CC)OC1=O` [13β-Ethyl-3-methoxygona-2,5(10)-diene-17S-spiro-5'-(2'-oxo-3'-(1"-cis-propenyl)-oxazolidine)], the “log (Na × 10 / K), X ± S” value with aldosterone (480 μg/animal p.o., with DOCA) was found to be 1.16; with aldosterone (960 μg/animal p.o., with DOCA), 1.22. For the same compound, the “Activity related to Spironolactone” value in the experiment with aldosterone (480 μg/animal p.o.) is 0.96. For the same compound, the inhibition in vivo at 0.48 mg in the experiment on aldosterone (setting [2]) amounted to 49%. In the experiment on aldosterone (setting [3]), the inhibition in vivo at 0.96 mg amounted to 56%. In addition, the “+ Stimulation, % / - Inhibition, %” value in experiment [1] (setting [4]) is on record as “+12.5%”. Also, in experiment [1] (setting [4]), the “Increase in weight of vesicula seminalis” value is 112.5%.
Consider `CC[C@]12CC[C@H]3[C@@H](CCC4=CC(=NOC)CC[C@@H]43)[C@@H]1CC[C@@]21CN(C)C(=O)O1` [13β-Ethyl-3-methoxyiminogon-4-ene-17S-spiro-5'-(2'-oxo-3'-methyloxazolidine)], for which the “log (Na × 10 / K), X ± S” value is 1.19 with aldosterone (480 μg/animal p.o., with DOCA) and 0.97 in the experiment on aldosterone (960 μg/animal p.o., with DOCA). Further, the “Activity related to Spironolactone” value in the experiment with aldosterone (480 μg/animal p.o.) turned out to be 0.98. For the same compound, the inhibition in vivo at 0.48 mg with aldosterone (setting [2]) is 53%. In addition, the inhibition in vivo at 0.96 mg in the experiment on aldosterone (setting [3]) turned out to be 24%. The “+ Stimulation, % / - Inhibition, %” value in experiment [1] (setting [4]) is reported as “+15.0%”. In addition, the “Increase in weight of vesicula seminalis” value in experiment [1] (setting [4]) amounted to 115.0%.
On to `CC[C@]12CC[C@H]3[C@@H](CCC4=CC(=O)CC[C@@H]43)[C@@H]1CC[C@@]21CN(C)C(=O)O1` [13β-Ethyl-4-en-3-one-17S-spiro-5'-(2'-oxo-3'-methyloxazolidine)], for which the “log (Na × 10 / K), X ± S” value with aldosterone (480 μg/animal p.o., with DOCA) amounted to 1.13; in the experiment with aldosterone (960 μg/animal p.o., with DOCA), 1.16; in the experiment on aldosterone (1920 μg/animal p.o., with DOCA), 1.30. Moreover, in the experiment on aldosterone (480 μg/animal p.o.), the “Activity related to Spironolactone” value is 0.93. Further, the inhibition in vivo at 0.48 mg in the experiment with aldosterone (setting [2]) turned out to be 45%. In the experiment on aldosterone (setting [3]), the inhibition in vivo at 0.96 mg was 49%. Further, the inhibition in vivo at 1.92 mg in the experiment on aldosterone (Rattus norvegicus, po, 1920 μg/animal p.o., read-out: DOCA blocking activity) was determined as 67%.
As to `CC[C@]12CC[C@@H]3C4=C(CC[C@H]3[C@@H]1CC[C@@]21CN(C)C(=O)O1)CC(=O)CC4` [13β-Ethylgon-5(10)-en-3-one-17S-spiro-5'-(2'-oxo-3'-methyloxazolidine)], the “log (Na × 10 / K), X ± S” value with aldosterone (480 μg/animal p.o., with DOCA) stood at 1.02; in the experiment on aldosterone (960 μg/animal p.o., with DOCA), 1.34. Also, the “Activity related to Spironolactone” value in the experiment on aldosterone (480 μg/animal p.o.) amounted to 0.84. In addition, the inhibition in vivo at 0.48 mg in the experiment with aldosterone (setting [2]) was found to be 31%. Further, the inhibition in vivo at 0.96 mg in the experiment with aldosterone (setting [3]) amounted to 71%. For the same compound, the “+ Stimulation, % / - Inhibition, %” value in experiment [1] (setting [4]) is listed as “+14.0%”. Further, the “Increase in weight of vesicula seminalis” value in experiment [1] (setting [4]) came out at 114.0%.
Consider `CC[C@]12C=CC3=C4CCC(=O)C=C4CC[C@H]3[C@@H]1CC[C@@]21CN(C)C(=O)O1` [13β-Ethylgona-4,9(10),11-trien-3-one-17S-spiro-5'-(2'-oxo-3'-methyloxazolidine)], for which, in the experiment on aldosterone (compared with the compounds listed in Table I, result in words), the antialdosterone activity result was “negligible”. The “inhibition against testosterone propionate (antiandrogenic activity)” value in experiment [1] (300 μg/2 weeks/animal, against 300 μg/2 weeks/animal T.P.) is recorded as 70%.
For the compound `CN1C[C@@]2(CC[C@H]3[C@@H]4C=CC5=CC(=O)CC[C@]5(C)[C@H]4CC[C@@]32C)OC1=O` [Androst-4,6-dien-3-one-17S-spiro-5'-(2'-oxo-3'-methyloxazolidine)], the “log (Na × 10 / K), X ± S” value with aldosterone (480 μg/animal p.o., with DOCA) worked out at 1.14; in the experiment on aldosterone (960 μg/animal p.o., with DOCA) it was 1.74. In the experiment on aldosterone (480 μg/animal p.o.), the “Activity related to Spironolactone” value worked out at 0.94. The inhibition in vivo at 0.48 mg with aldosterone (setting [2]) was found to be 46%. Further, the inhibition in vivo at 0.96 mg in the experiment with aldosterone (setting [3]) amounted to 123%. The “+ Stimulation, % / - Inhibition, %” value in experiment [1] (setting [4]) is on record as -1.4%. For the same compound, the “Increase in weight of vesicula seminalis” value in experiment [1] (setting [4]) was found to be 98.6%.
On to `CC(=O)OCC(=O)[C@H]1CC[C@H]2[C@@H]3CCC4=CC(=O)CC[C@]4(C)[C@H]3CC[C@]12C` [DOCA, Pregn-4-ene-3,20-dion-21-ol-acetate, reference compound], for which, in the experiment on aldosterone (DOCA, 12.5 μg/animal s.c.), the “log (Na × 10 / K), X ± S” value turned out to be 0.78.
On to `CN1C[C@@]2(CC[C@H]3[C@@H]4CCC5=CC(=O)CC[C@@H]5[C@H]4CC[C@@]32C)OC1=O` [Oestr. 4-en-3-one-17S-spiro-5'-(2'-oxo-3'-methyloxazolidine)], for which, in the experiment on aldosterone (480 μg/animal p.o., with DOCA), the “log (Na × 10 / K), X ± S” value was 1.26. Also, in the experiment with aldosterone (480 μg/animal p.o.), the “Activity related to Spironolactone” value was determined as 1.04. Besides, in the experiment on aldosterone (960 μg/animal p.o., with DOCA), the “log (Na × 10 / K), X ± S” value was 1.12. In the experiment on aldosterone (setting [2]), the inhibition in vivo at 0.48 mg was 61%. Besides, in the experiment with aldosterone (setting [3]), the inhibition in vivo at 0.96 mg was determined as 44%. In experiment [1] (setting [4]), the “+ Stimulation, % / - Inhibition, %” value was “+13.0%” and the “Increase in weight of vesicula seminalis” value came to 113.0%.
Turning to `CC(=O)S[C@@H]1CC2=CC(=O)CC[C@]2(C)[C@H]2CC[C@@]3(C)[C@@H](CC[C@@]34CCC(=O)O4)[C@H]12` [Spironolactone, 17α-carboxyethyl-17β-hydroxy-7α-acetylthioandrost-4-en-3-one-lactone, reference compound], the “log (Na × 10 / K), X ± S” value in the experiment with aldosterone (480 μg/animal p.o., with DOCA) was 1.21. Besides, the “Activity related to Spironolactone” value in the experiment with aldosterone (480 μg/animal p.o.) is 1.0. Moreover, in the experiment on aldosterone (setting [2]), the inhibition in vivo at 0.48 mg worked out at 54%. Besides, the “inhibition (antiandrogenic activity)” value is given as 32.5% in experiment [1] (5.0 mg/2 weeks/animal s.c.) and 50.6% in experiment [1] (10.0 mg/2 weeks/animal s.c.). The “+ Stimulation, % / - Inhibition, %” value is given as -32.5% in experiment [1] (setting [4]) and -50.6% in experiment [1] (setting [5]). Further, the “Increase in weight of vesicula seminalis” value in experiment [1] (setting [4]) stood at 67.5%; in experiment [1] (setting [5]) it was 49.4%.
Take `CCC(=O)O[C@H]1CC[C@H]2[C@@H]3CCC4=CC(=O)CC[C@]4(C)[C@H]3CC[C@]12C` [Testosterone propionate, testosterone propionate, reference compound]: in experiment [1] (testosterone propionate, 0.3 mg/2 weeks/animal), the “Increase in weight of vesicula seminalis” value was found to be 100%.

Values taken from patent US4180505A, “Novel steroidspirooxazolidines and process for their preparation” (Richter Gedeon Vegyeszet, Gyar RT, priority 1977, dated 1979).
